EP0326326A1, “Cysteine derivatives” (SANTEN PHARMACEUTICAL CO., LTD., priority 1988, dated 1989)

How the values were obtained:
[1] = system: haemolytic plaque-forming spleen cells; assay: Effect on immune response against sheep red blood cells of mouse (haemolytic plaque-forming spleen cell count); assay type: in vivo, female BALB/c mice; conditions: Erythrocyte, ip, 96 h, mice immunized with 5 x 10⁸ sheep red blood cells i.p., compound administered continuously for 4 days, calculated from the cell count, read-out: 50% suppressive dose
Experimental: According to the method of Iso ( Int. J. Immunotherapy, 1, 93 (1985)), 5 x 10⁸ sheep red blood cells were administered intraperitoneally to female BALB/c mice ( 3 to 5 mice a group ) and immunized.
After immunization, the test compound suspended in 1% methyl cellulose solution was administered continuously for 4 days.
Mice were killed and the number of haemolytic plaque-forming spleen cells were measured.
50% suppressive dose was calculated based on the cell count. For a comparison, the similar test with the known compound of the formula[IV] described in US Patent 4305958 was performed.

Acute toxicity = assay: Acute toxicity; design: species or system ddY mice; conditions: mouse, in vivo; oral, ddY mice, male, single dose of 2000mg/kg; read-out: LD₅₀
Experimental: (§1) The compound No.2 was suspended in 0.5% methyl cellulose solution at 20% concentration. The solution was administered orally to ddY mice ( male, 5 weeks age, 6 mice a group ) at a dose of 2000mg/kg.

ddY mice = assay: Acute toxicity; conditions: mouse, in vivo, po, 2000 mg/kg
Experimental: as §1

[2] = system: liver disorder caused by CCl₄; assay: Effect on the liver disorder caused by CCl₄ (serum GOT and GPT levels); assay type: in vivo, male Wistar rats; conditions: 24 hours after CCl₄ 0.25ml/kg intraperitoneally, test compound 300mg/kg orally 30 minutes before, rat
Experimental: The rat liver disorder model cause by CCl₄ is generally used to examine the efficacy of a drug for liver diseases.
The test compound was suspended in tragacanth gum solution and administered orally to male Wistar rats ( 5rats a group) at a dose of 300mg/kg.
Thirty minutes later, CCl₄ a liver disorder inducer, was given intraperitoneally at a dose of 0.25ml/kg.
Serum GOT and GPT levels were measured 24 hours after the administration of CCl₄ . To a control, 0.5% tragacanth gum solution was given.

| SMILES | ED50 [1] [mg/kg] | LD50 (Acute toxicity) [mg/kg] | Toxicity (ddY mice) | GOT [2] | GPT [2] |
| --- | --- | --- | --- | --- | --- |
| CC(C)(CS)C(=O)N[C@@H](CS)C(=O)O [Compound No.2, N-(2,2-Dimethyl-3-mercaptopropionyl)-L-cysteine] | 19.1 | > 2000 | weak with a single case of death | 13605 | 6558 |
| CC(C)(S)C(=O)NC(CS)C(=O)O (stereo not drawn) [known compound, reference compound] | 90.6 | – | – | – | – |
